Laboratory results taken from EP4775582A1, “MACROCYCLIC COMPOUND AND ANTIBODY-DRUG CONJUGATE THEREOF” (Genfleet Therapeutics (Shanghai) Inc., priority 2023, dated 2025).
pIC50: −log10 of the molar value. In brackets after ≈: the same amount, converted by molar mass. Like-named read-outs stand apart in the source and are kept apart here.

What was measured:
H441 p-ERK = assay: Cell p-ERK assay (HTRF), NCI-H441 cells; assay type: cell-based, human; conditions: NCI-H441 cells (KRAS G12V), 3 h incubation
Method in brief: (§1)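 AsPC-1 (10000/well) or NCI-H441 (20000/well) cells were seeded overnight and then exposed to compound for 3 h at 37 °C. Lysates were probed for ERK phospho-T202/Y204 by HTRF with a 4-hour antibody incubation. IC50 values came from four-parameter fits of inhibition against log concentration.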

AsPC-1 p-ERK = assay: Cell p-ERK assay (HTRF), AsPC-1 cells; assay type: cell-based, human; conditions: for pIC50: AsPC-1 cells (KRAS G12D), 3 h incubation, read-out: AsPC-1 p-ERK IC50
Method in brief: as §1

NCI-H441 cells = assay: 3D cell proliferation assay (CellTiter Glo-3D), NCI-H441; assay type: cell-based, human; conditions: NCI-H441 cells (KRAS G12V), 2% FBS, 5 days, read-out: H441 AP IC50
Method in brief: (§2)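 Cells seeded at 800 per well (AsPC-1, NCI-H441) in 2% FBS medium and incubated overnight at 37 °C, 5% CO2. Compounds added next day from 10× stock, then 5 days' further culture. Viability read by CellTiter-Glo luminescence; IC50 from four-parameter fit of inhibition versus log concentration.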

AsPC-1 cells = assay: 3D cell proliferation assay (CellTiter Glo-3D), AsPC-1; assay type: cell-based, human; conditions: AsPC-1 cells (KRAS G12D), 3D, 2% FBS, 5 days, read-out: AsPC-1 AP IC50
Method in brief: as §2

[1] = Solubility experiment (HPLC, external standard); assay type: physicochemical; conditions: 37 °C, 24 h; for solubility at 24 h: pH 7.4, pH 7.4 medium
Experimental: This experiment was intended to determine the solubility of the compounds in media at different pH values. The materials used in the experiment included: a pH 1.2 medium, a pH 4.5 medium, a pH 7.4 medium, and a diluent (acetonitrile/water = 50/50). 1. The preparation methods for media are as follows:
One centrifuge tube (containing about 2 mg of the test sample) was taken, 1 mL of DMSO was added to completely dissolve the test sample, and the mixture was marked as stock-1. 0.2 mL of stock-1 was transferred into a 10 mL volumetric flask, and then the 50:50 (acetonitrile/water) solution was added to bring the volume to the mark, so as to give a control solution.
Additionally, centrifuge tubes each containing about 1 mg of the test sample were taken, 1 mL of the corresponding medium solution was then added, and the tubes were shaken on a 37 °C water bath shaker for 24 h. After centrifugation for 3 times (centrifugation time: 10 min, rotation speed: 12000 rpm), 0.2 mL of the supernatants were taken, 0.8 mL of the diluent (acetonitrile/water = 50/50) was added to each tube, and the mixtures were vortexed and mixed well to give solubility samples.
The solubility samples described above and the control solution were sequentially analyzed by high performance liquid chromatography. The chromatographic conditions are as follows:
The actual concentration of the compound in each solubility sample was calculated according to an external standard method. Concentration (μg/mL) = (ASample × CControl × DSample)/(AControl)∗1000; [formula] Asample: the peak area of the target peak in the sample solution; Ccontrol: the concentration (mg/mL) of the control solution; Dsample: the dilution factor of the sample solution; Acontrol: the peak area of the target peak in the control solution.

KRAS WT-cRAF = KRAS WT-cRAF (Homo sapiens, UniProt P01116+P62937); assay: Assay for binding of KRAS to cRAF (HTRF, with Cyclophilin A), KRAS WT; conditions: for IC50: KRAS WT-cRAF binding assay(nM), GPPNP-KRAS WT, IC50 values; for pIC50: read-out: KRAS WT-cRAF binding assay, GPPNP-KRAS WT, IC50 values
Experimental: (§3) The plate was centrifuged at 1000 rpm for 1 min and then incubated in the thermostatic incubator at 20 °C for 30 min. […] The plate was centrifuged at 1000 rpm for 1 min and then incubated in the thermostatic incubator at 20 °C for 60 min. […] The working solution was added to the aforementioned assay plate at 5 µL/well. The plate was centrifuged at 1000 rpm for 1 min and then incubated in the thermostatic incubator at 20 °C for 60 min.

KRAS G12V-cRAF = KRAS G12V-cRAF (Homo sapiens, UniProt P01116+P62937, G12V); assay: Assay for binding of KRAS to cRAF (HTRF, with Cyclophilin A), KRAS G12V; conditions: for IC50: KRAS G12V-cRAF binding assay(nM), GPPNP-KRAS G12V, IC50 values; for pIC50: read-out: KRAS G12V-cRAF binding assay, GPPNP-KRAS G12V, IC50 values
Sequence of KRAS G12V-cRAF (P01116 1-188 isoform P01116-2 G12V): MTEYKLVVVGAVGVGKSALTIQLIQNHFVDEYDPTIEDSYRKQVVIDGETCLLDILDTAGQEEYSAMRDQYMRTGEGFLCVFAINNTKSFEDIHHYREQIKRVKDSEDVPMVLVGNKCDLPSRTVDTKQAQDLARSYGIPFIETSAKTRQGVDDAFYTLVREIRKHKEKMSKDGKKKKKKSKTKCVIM
Sequence of KRAS G12V-cRAF (P62937 whole entry): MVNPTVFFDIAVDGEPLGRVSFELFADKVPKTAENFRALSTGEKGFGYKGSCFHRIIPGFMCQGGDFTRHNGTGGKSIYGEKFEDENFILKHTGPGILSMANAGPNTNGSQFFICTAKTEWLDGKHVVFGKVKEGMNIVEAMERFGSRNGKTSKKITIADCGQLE
Experimental: as §3

Sequence of KRAS WT-cRAF (P01116 1-188 isoform P01116-2): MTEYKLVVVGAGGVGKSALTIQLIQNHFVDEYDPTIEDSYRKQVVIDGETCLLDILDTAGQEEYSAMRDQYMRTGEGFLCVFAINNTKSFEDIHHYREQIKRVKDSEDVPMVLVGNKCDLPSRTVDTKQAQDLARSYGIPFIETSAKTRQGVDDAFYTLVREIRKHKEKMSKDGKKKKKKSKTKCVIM
Sequence of KRAS WT-cRAF (P62937 whole entry): as the sequence (P62937 whole entry) above

SMILES	pIC50 (H441 p-ERK; Homo sapiens)	pIC50 (AsPC-1 p-ERK; Homo sapiens, ASPC1)	pIC50 (NCI-H441 cells; Homo sapiens, 120 h)	pIC50 (AsPC-1 cells; Homo sapiens, ASPC1, 120 h)	solubility at 24 h ([1]; pH 7.4 medium)	IC50 (KRAS WT-cRAF)	IC50 (KRAS G12V-cRAF)	pIC50 (KRAS WT-cRAF)	pIC50 (KRAS G12V-cRAF)	other results
CCn1c(-c2cc(C#CCN3CCN(C(=O)CO)CC3)cnc2C(C)OC)c2c3cc(ccc31)-c1csc(n1)CC(NC(=O)C1C(C)C1C)C(=O)N1CCCC(N1)C(=O)OCC(C)(C)C2 (atropisomer, axis not shown; (Ra)) [Compound Z6, (1r,2R,3S)-N-((6^3S,4S,Z)-1^1-ethyl-(Ra)-1^2-(5-(3-(4-(2-hydroxyacetyl)piperazin-1-yl)prop-1-yn-1-yl)-2-((S)-1-methoxyethyl)pyridin-3-yl)-10,10-dimethyl-5,7-dioxo-6^1,6^2,6^3,6^4,6^5,6^6-hexahydro-1^1H-8-oxa-2(4,2)-thiazola-1(5,3)-indola-6(1,3)-pyridazinacycloundecaphane-4-yl)-2,3-dimethylcyclopropane-1-carboxamide]	9.68	9.82	9.55	9.51	7.8 µg/mL (≈ 8.6 µM)	19.2 nM	10.7 nM			
CCn1c(-c2cc(C#CCN3CCN(C(=O)CO)CC3)cnc2[C@H](C)OC)c2c3cc(ccc31)-c1csc(n1)C[C@H](NC(=O)[C@H]1[C@@H]3COC[C@@H]31)C(=O)N1CCC[C@H](N1)C(=O)OCC(C)(C)C2 (atropisomer, axis not shown; (Ra)) [Compound Z34, (1R,5S,6r)-N-((6^3S,4S,Z)-1^1-ethyl-1^2-(5-(3-(4-(2-hydroxyacetyl)piperazin-1-yl)prop-1-yn-1-yl)-(Ra)-2-((S)-1-methoxyethyl)pyridin-3-yl)-10,10-dimethyl-5,7-dioxo-6^1,6^2,6^3,6^4,6^5,6^6-hexahydro-1^1H-8-oxa-2(4,2)-thiazola-1(5,3)-indola-6(1,3)-pyridazinacycloundecaphane-4-yl)-3-oxabicyclo[3.1.0]hexane-6-carboxamide]								7.60	7.77	pIC50 (H441 p-ERK): 9.57; pIC50 (AsPC-1 p-ERK): 9.55; pIC50 (NCI-H441 cells): 9.33; pIC50 (AsPC-1 cells): 9.11; Solubility at pH 7.4 (µg/mL) ([1]; pH 7.4 medium): 16.22 µg/mL
COCCn1c(-c2cc(C#CCN3CCN(C(=O)CO)CC3)c[n+]([O-])c2C(C)OC)c2c3cc(ccc31)-c1csc(n1)CC(NC(=O)C1C3COCC31)C(=O)N1CCCC(N1)C(=O)OCC(C)(C)C2 (atropisomer, axis not shown; (Ra)) [Compound Z38-1, (Ra)-3-((6^3S,4S,Z)-4-((1R,5S,6r)-3-oxabicyclo[3.1.0]hexane-6-carboxamido)-1^1-(2-methoxyethyl)-10,10-dimethyl-5,7-dioxo-6^1,6^2,6^3,6^4,6^5,6^6-hexahydro-1^1H-8-oxa-2(4,2)-thiazola-1(5,3)-indola-6(1,3)-pyridazinacycloundecaphane-1^2-yl)-5-(3-(4-(2-hydroxyacetyl)piperazin-1-yl)prop-1-yn-1-yl)-2-((S)-1-methoxyethyl)pyridine-1-oxide]					97 µg/mL (≈ 100 µM)	69.6 nM	37.7 nM			
CCn1c(-c2cc(C#CC(CO)N3CCS(=O)(=O)CC3)cnc2C(C)OC)c2c3cc(ccc31)-c1csc(n1)CC(NC(=O)C1C3COCC31)C(=O)N1CCCC(N1)C(=O)OCC(C)(C)C2 (atropisomer, axis not shown; (Ra)) [Compound Z40, (1R,5S,6r)-N-((6^3S,4S,Z)-(Ra)-1^2-(5-(3-(1,1-dioxidothiomorpholino)-4-hydroxybut-1-yn-1-yl)-(Ra)-2-((S)-1-methoxyethyl)-pyridin-3-yl)-1^1-ethyl-10,10-dimethyl-5,7-dioxo-6^1,6^2,6^3,6^4,6^5,6^6-hexahydro-1^1H-8-oxa-2(4,2)-thiazola-1(5,3)-indola-6(1,3)-pyridazinacycloundecaphane-4-yl)-3-oxabicyclo[3.1.0]hexane-6-carboxamide]	9.35	9.42	9.40	9.37	5.1 µg/mL (≈ 5.41 µM)	14.3 nM	7.8 nM			
COCCn1c(-c2cc(C#CCN3CCN(C(=O)CO)CC3)c[n+]([O-])c2[C@H](C)OC)c2c3cc(ccc31)-c1csc(n1)C[C@H](NC(=O)[C@H]1[C@H](C)[C@@H]1C)C(=O)N1CCC[C@H](N1)C(=O)OCC(C)(C)C2 (atropisomer, axis not shown; (Ra)) [Compound Z54, (Ra)-3-((6^3S,4S,Z)-4-((1r,2R,3S)-2,3-dimethylcyclopropane-1-carboxamido)-1^1-(2-methoxyethyl)-10,10-dimethyl-5,7-dioxo-6^1,6^2,6^3,6^4,6^5,6^6-hexahydro-11H-8-oxa-2(4,2)-thiazola-1(5,3)-indola-6(1,3)-pyridazinacyclodecaphane-1^2-yl)-5-(3-(4-(2-hydroxyacetyl)piperazin-1-yl)prop-1-yn-1-yl)-2-((S)-1-methoxyethyl)pyridine 1-oxide]			8.33	7.85				7.13	7.92	solubility at 24 h ([1]; ph 7.4 medium): 36.2 µg/mL (≈ 38 µM)
CCn1c(-c2cc(C#CCN3CCS(=O)(=O)CC3)cnc2C(C)NC)c2c3cc(ccc31)-c1csc(n1)CC(NC(=O)C1C(C)C1C)C(=O)N1CCCC(N1)C(=O)OCC(C)(C)C2 (atropisomer, axis not shown; (Ra)) [Compound Z67, (1r,2R,3S)-N-((6^3S,4S,Z)-(Ra)-1^2-(5-(3-(1,1-dioxidothiomorpholino)prop-1-yn-1-yl)-2-((R)-1-(methylamino)ethyl)pyridin-3-yl)-1-ethyl-10,10-dimethyl-5,7-dioxo-6^1,6^2,6^3,6^4,6^5,6^6-hexahydro-1^1H-8-oxa-2(4,2)-thiazola-1(5,3)-indola-6(1,3)-pyridazinacycloundecaphane-4-yl)-2,3-dimethylcyclopropane-1-carboxamide]	8.09	7.98			101 µg/mL (≈ 113 µM)	62 nM	8.7 nM			
CCn1c(-c2cc(C#CCN3CCN(C(=O)CN)CC3)cnc2[C@H](C)OC)c2c3cc(ccc31)-c1coc(n1)C[C@H](NC(=O)[C@H]1[C@@H]3COC[C@@H]31)C(=O)N1CCC[C@H](N1)C(=O)OCC(C)(C)C2 (atropisomer, axis not shown; (Ra)) [Compound Z167, (1R,5S,6r)-N-((6^3S,4S,Z)-1^2-(5-(3-(4-glycylpiperazin-1-yl)prop-1-yn-1-yl)-(Ra)-2-((S)-1-methoxyethyl)pyridin-3-yl)-1^1-ethyl-10,10-dimethyl-5,7-dioxo-6^1,6^2,6^3,6^4,6^5,6^6-hexahydro-1^1H-8-oxa-2(4,2)-oxazola-1(5,3)-indola-6(1,3)-pyridazinacycloundecaphane-4-yl)-3-oxabicyclo[3.1.0]hexane-6-carboxamide]	8.90							7.39	7.86	IC50 (AsPC-1 p-ERK; Homo sapiens, ASPC1, 3 h, read-out: AsPC-1 p-ERK IC50(nM)): 1.64 nM; solubility at 24 h ([1]; ph 7.4 medium): 363 µg/mL (≈ 401 µM)
